PMC13469122, “Structural and mechanistic insights into primer synthesis initiation by DNA primase” (Nature Communications, 2026)

Columns and labels:
[1] = target: T1, primase (pRN1 primase, residues 40-370) (Saccharolobus islandicus, UniProt Q54324); assay: solid-state hPH NMR; type: binding; details: with DNA^CT; triphosphate at NTP^S site
T1 construct: Catalytic domain, linker and helix bundle domain, residues 40-370; C-terminal His6 without cleavage site; E. coli BL21(DE3) CodonPlus, pET28c

[2] = target: T2, HBD (helix bundle domain) of pRN1 primase (Saccharolobus islandicus, UniProt Q54324); assay: solution NMR; type: binding
T2 construct: Helix bundle domain 261-370 plus linker 256-260; residual GHM (253-255) after TEV cleavage of N-terminal His6; E. coli BL21(DE3) CodonPlus, pET28c

[3] = target: T3, primase (pRN1 primase, residues 40-370) (Saccharolobus islandicus, UniProt Q54324, H145A); assay: solid-state hPH NMR (also NHHP, CHHP); type: binding; details: with DNA^CT and ATP^N, 309 K; NTP^S site
T3 construct: Catalytic domain, linker and helix bundle domain, residues 40-370; C-terminal His6 without cleavage site; E. coli BL21(DE3) CodonPlus, pET28c

pRN1 primase H145A = target: T4, pRN1 primase H145A (Sulfolobus islandicus plasmid pRN1, UniProt Q54324 40-370, H145A); assay: NMR (solid-state hPH, NHHP, CHHP); ATPN + dGTPC; 25 mM sodium phosphate, 50 mM NaCl, 10 mM MgCl2, pH 7.0; ITC and HBD NMR 298 K, primase NMR 313 K; details: protein: recombinant; tags: C-terminal His6, not cleaved; single strand
T4 sequence: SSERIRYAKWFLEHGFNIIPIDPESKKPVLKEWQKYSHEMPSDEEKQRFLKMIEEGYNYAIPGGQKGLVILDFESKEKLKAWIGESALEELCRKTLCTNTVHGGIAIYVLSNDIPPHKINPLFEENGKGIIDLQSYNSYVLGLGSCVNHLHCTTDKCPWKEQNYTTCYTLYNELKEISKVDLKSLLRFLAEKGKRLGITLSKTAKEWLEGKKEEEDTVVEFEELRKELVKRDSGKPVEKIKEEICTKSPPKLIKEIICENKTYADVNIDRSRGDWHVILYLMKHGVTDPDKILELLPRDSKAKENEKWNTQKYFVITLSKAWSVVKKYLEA

[4] = target: T5, pRN1 primase helix bundle domain (HBD) (Sulfolobus islandicus plasmid pRN1, UniProt Q54324 256-370); assay: ITC; 1 mM dGTP, 10 mM Mg2+; Kd not printed in the material; 25 mM sodium phosphate, 50 mM NaCl, 10 mM MgCl2, pH 7.0; ITC and HBD NMR 298 K, primase NMR 313 K; details: protein: recombinant; tags: non-native GHM (numbered 253-255) left after TEV cleavage of N-terminal His6; single strand
T5 sequence: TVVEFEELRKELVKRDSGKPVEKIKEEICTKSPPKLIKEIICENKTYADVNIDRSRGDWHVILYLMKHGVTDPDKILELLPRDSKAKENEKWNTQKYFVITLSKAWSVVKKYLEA

T1 sequence (Q54324 entry or part of it): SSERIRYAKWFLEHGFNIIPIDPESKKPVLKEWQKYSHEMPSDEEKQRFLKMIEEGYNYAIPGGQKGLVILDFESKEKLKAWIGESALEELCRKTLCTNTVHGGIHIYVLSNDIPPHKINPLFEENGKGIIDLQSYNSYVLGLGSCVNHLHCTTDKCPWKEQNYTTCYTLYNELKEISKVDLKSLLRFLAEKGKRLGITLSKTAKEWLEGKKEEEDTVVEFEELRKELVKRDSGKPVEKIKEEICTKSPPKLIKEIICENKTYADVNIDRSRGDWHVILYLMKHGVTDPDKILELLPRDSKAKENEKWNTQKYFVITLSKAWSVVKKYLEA

`Nc1nc2c(ncn2[C@H]2C[C@H](O)[C@@H](COP(=O)(O)O[C@H]3[C@@H](O)[C@H](n4cnc5c(N)ncnc54)O[C@@H]3COP(=O)(O)OP(=O)(O)NP(=O)(O)O)O2)c(=O)[nH]1` was tested. Which “solid-state hPH NMR” value [1] did it give?
The value was “the solid-state hPH NMR spectrum of the primase-DNA^CT-pNHppApG complex”.

`Nc1ncnc2c1ncn2[C@@H]1O[C@H](COP(=O)(O)OP(=O)(O)OP(=O)(O)O)[C@@H](O)[C@H]1O` [ATP] was tested. Which “solution NMR” value ([2]; with DNA^CT and dGTP, NTP^W site (displaced from NTP^S site by dGTP)) did it give?
Its value is “the second ATP remains bound at the NTP^W site without base-pairing with T2”.

How did the “solution NMR” value ([2]; with DNA^CT and ATP, NTP^S site) turn out when `Nc1nc2c(ncn2[C@H]2C[C@H](O)[C@@H](COP(=O)(O)OP(=O)(O)OP(=O)(O)O)O2)c(=O)[nH]1` [dGTP] was run?
The value was “dGTP displaces ATP at the NTP^S site to base-pair with C1”.

How did the “solid-state hPH NMR (also NHHP, CHHP)” value [3] turn out when `Nc1nc2c(ncn2[C@H]2C[C@H](O)[C@@H](COP(=O)(O)OP(=O)(O)CP(=O)(O)O)O2)c(=O)[nH]1` [dGTP^C] was run?
The value was “ATP^N binds at the NTP^W site, while dGTP^C occupies the NTP^S site”.

Does CTGTGCTCA (ssDNA) [DNACT] bind (pRN1 primase H145A)?
Result: binds

And the binding signal [4]?
The binding signal was ~5 fold tighter GTG recognition than with ATP.
